Target: T1, IKK-2 (Homo sapiens, UniProt O14920)
T1 construct: made in house; host or cells: baculovirus-infected insect cells (SF9)
T1 sequence (O14920 1-756): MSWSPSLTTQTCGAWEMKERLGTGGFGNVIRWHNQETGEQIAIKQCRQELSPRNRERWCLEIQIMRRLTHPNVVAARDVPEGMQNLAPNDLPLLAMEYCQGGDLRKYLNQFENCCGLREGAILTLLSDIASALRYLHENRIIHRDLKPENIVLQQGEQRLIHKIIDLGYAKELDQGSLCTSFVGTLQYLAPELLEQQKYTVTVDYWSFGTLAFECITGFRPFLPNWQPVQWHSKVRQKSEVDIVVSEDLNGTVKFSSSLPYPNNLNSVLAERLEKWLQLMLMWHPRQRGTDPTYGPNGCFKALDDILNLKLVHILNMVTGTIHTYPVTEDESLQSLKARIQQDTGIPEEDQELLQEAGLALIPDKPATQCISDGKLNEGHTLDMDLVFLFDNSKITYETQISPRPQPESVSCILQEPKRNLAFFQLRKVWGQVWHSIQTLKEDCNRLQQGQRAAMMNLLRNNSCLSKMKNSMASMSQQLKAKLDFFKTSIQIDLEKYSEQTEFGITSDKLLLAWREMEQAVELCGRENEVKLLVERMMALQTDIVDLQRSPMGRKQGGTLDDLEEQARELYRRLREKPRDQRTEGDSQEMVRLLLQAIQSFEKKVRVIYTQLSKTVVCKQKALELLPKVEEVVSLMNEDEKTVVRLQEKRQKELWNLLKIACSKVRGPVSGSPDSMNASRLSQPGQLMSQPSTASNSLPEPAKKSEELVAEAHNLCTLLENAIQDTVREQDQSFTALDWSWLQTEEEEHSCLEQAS
Test: IKK-2 Resin Enzyme Assay (IKK-2 IC50 determination)
Type: biochemical
Details: rhIKK-2 homodimer; biotinylated IκBα peptide 5 μM, 1 μM ATP, 25° C., 30 min
Text: cDNAs of human IKK-1 and IKK-2 were amplified by reverse transcriptase-polymerase chain reaction from human placental RNA (Clonetech). hIKK-1 was subcloned into pFastBac HTa (Life Technologies) and expressed as N-terminal His6-tagged fusion protein. The hIKK-2 cDNA was amplified using a reverse oligonucleotide primer which incorporated the peptide sequence for a FLAG-epitope tag at the C-terminus of the IKK-2 coding region (DYKDDDDKD). The hIKK-2:FLAG cDNA was subcloned into the baculovirus vector pFastBac. The rhIKK-2 (S177S, E177E) mutant was constructed in the same vector used for wild type rhIKK-2 using a QuikChange™ mutagenesis kit (Stratagene). Viral stocks of each construct were used to infect insect cells grown in 40L suspension culture. […] Cell lysates were stored at −80° C. until purification of the recombinant proteins was undertaken as described below.
A 10-liter culture of baculovirus-expressing IKK-2 tagged with FLAG peptide was centrifuged and the cell pellet (MOI=0.1 and I=72 hrs) was re-suspended in buffer A. These cells were microfluidized, and centrifuged at 100,000×g for 45 min. Supernatant was passed over a G-25 column equilibrated with Buffer A. Protein peak was collected and incubated with anti-FLAG affinity resin on a rotator overnight in buffer B. The resin was washed in batch with 10-15 bed volumes of buffer C. Washed resin was poured into a column and rhIKK-2 homodimer was eluted using 5 bed volumes of buffer B containing FLAG peptide. 5 mM DTT, 0.1% NP-40 and BSA (concentrated to 0.1% in final amount) was added to the eluted enzyme before concentrating in using an Amicon membrane with a molecular weight cut-off of 30 kDa. Enzyme was aliquoted and stored at −80° C.
IKK-2 kinase activity was measured using a biotinylated IκBα peptide (Gly-Leu-Lys-Lys-Glu-Arg-Leu-Leu-Asp-Asp-Arg-His-Asp-Ser32-Gly-Leu-Asp-Ser36-Met-Lys-Asp-Glu-Glu) (American Peptide Co.). 20 ul of the standard reaction mixture contained 5 μM biotinylated IκBA peptide, 0.1 μCi/reaction [γ-^33P] […] ATP was measured using a Top-Count NXT (Packard).

IC50 | Compound
1080 nM | Nc1nc(-c2ccccc2O)cn(C2CCCNC2)c1=O (stereo not drawn) [Example 1, 3-amino-5-(2-hydroxyphenyl)-1-piperidin-3-ylpyrazin-2(1H)-one]
903 nM | Nc1nc(-c2cc(F)ccc2O)cn(C2CCCNC2)c1=O (stereo not drawn) [Example 2, 3-amino-5-(5-fluoro-2-hydroxyphenyl)-1-piperidin-3-ylpyrazin-2(1H)-one]
1790 nM | Nc1nc(-c2ccc(F)cc2O)cn(C2CCCNC2)c1=O (stereo not drawn) [Example 3, 3-amino-5-(4-fluoro-2-hydroxyphenyl)-1-piperidin-3-ylpyrazin-2(1H)-one]
